Measured values taken from patent publication US5545547A, “Enzymes as agricultural chemical adjuvants” (priority 1992, dated 1996).

Experiments:
Type in all cases: in vivo
[1] = system: Beefsteak Tomato seedlings; assay: HYVAR uptake by whole plants, effect of macerating enzymes (GC219); set-up: key: -=No phytotoxicity; +=Some phytotoxicity seen in area of treatment.; ++=Phytotoxicity seen outside area of treatment
Protocol: 13-16 day old Beefsteak Tomato seedlings were treated with solutions of HYVAR herbicides [5-bromo-6-methyl-3-(1-methylpropyl)-2,4-(1H,3H)-pyrimidinedione] and GC219. Solutions of Hyvar and GC219 were made up on DI H2 O and 1% ethanol and adjusted with 0.1N HCL to a final pH of 4.0. 10 ul of solution was applied to each cotyledon and 15 ul to each secondary pentafoliate leaflet. 10 tomato seedlings were used for each test solutions. Observations were made daily after treatment for 4 days.
HYVAR herbicide [5-bromo-6-methyl-3-(1-methylpropyl)-2,4-(1H,3H)-pyrimidinedione] was diluted 1:200 or 1:400 for each experiment.

Giant Fox Tail [2] = assay: Greenhouse multispecies herbicide screen with/without P. mendocina enzyme; conditions: HYVAR 18%, two weeks after treatment
Giant Fox Tail [3] = assay: as above
Protocol: (§1) Several plant species including weeds and crops are used in these experiments.
A number of herbicides from various chemical classes were compared in a multispecies screen for percent chlorosis, necrosis and vigor reduction both with and without application of the enzyme from Pseudomonas mendocina ATCC 53552 described earlier. […] Two different enzyme concentrations were used: 0.5 mg/ml (HE) and 0.05 mg/ml (LE) and applied at the rate of 40 gallons/acre. All spraying solutions were at pH 10 and contained 100 mm sodium phosphate each. Ratings were done at 6 and 12 days after the treatment. All the experiments were carried out in a greenhouse.
(§2) Chlorosis--figures represent percent of plants showing chlorosis.
(§3) Necrosis--figures represent percent of plants showing necrosis.
(§4) Vigor--figures represent percent of plants showing decreased vigor.
(§5) Phytotoxicity--figures represent the average percent of chlorosis, necrosis, and vigor for a given sample.

Turnip = assay: as above; conditions: one week after treatment
Source text: as §1
(§6) A number of herbicides from various chemical classes were compared in a multispecies screen for percent chlorosis, necrosis and vigor reduction both with and without application of the enzyme from Pseudomonas mendocina ATCC 53552 described earlier. The herbicides were applied to various plants at the manufacturers recommended doses and at 10% and 40% of the recommended dose. Two different enzyme concentrations were used: 0.5 mg/ml (HE) and 0.05 mg/ml (LE) and applied at the rate of 40 gallons/acre. All spraying solutions were at pH 10 and contained 100 mm sodium phosphate each. Ratings were done at 6 and 12 days after the treatment. All the experiments were carried out in a greenhouse.
as §2, §3, §4, §5
(§7) The method of Example 1 was used except that the enzyme was applied 2 hours prior to administering the agricultural chemical with the following results. Ratings were done two weeks after treatment

Soybeans = assay: as above; conditions: one week after treatment
Source text: as §1, §6, §2, §3, §4, §5, §7

[4] = HYVAR 10% dose, High Enzyme, one week after treatment
[5] = HYVAR 10% dose, Low Enzyme, one week after treatment
[6] = HYVAR 10% dose, No Enzyme, one week after treatment
[7] = HYVAR 18%, High Enzyme, two weeks after treatment
[8] = HYVAR 18%, Low Enzyme, two weeks after treatment
[9] = HYVAR 18%, No Enzyme, two weeks after treatment
[10] = HYVAR 40% dose, High Enzyme, one week after treatment
[11] = HYVAR 40% dose, Low Enzyme, one week after treatment
[12] = HYVAR 40% dose, No Enzyme, one week after treatment
[13] = HYVAR 100% dose, No Enzyme, one week after treatment

In the case of `CCC(C)n1c(=O)[nH]c(C)c(Br)c1=O` (stereo not shown) [HYVAR, 5-bromo-6-methyl-3-(1-methylpropyl)-2,4-(1H,3H)-pyrimidinedione], the “PHYTOTOXICITY RATING” value ([1]; HYVAR (1:400 dilution), Day 2) is reported as “-”, the “PHYTOTOXICITY RATING” value ([1]; HYVAR (1:400 dilution), Day 3) is reported as “-” and the “PHYTOTOXICITY RATING” value ([1]; HYVAR alone (1:200 dilution), Day 1) is reported as “-”. The “PHYTOTOXICITY RATING” value ([1]; HYVAR alone (1:200 dilution), Day 2) was “+”, the “PHYTOTOXICITY RATING” value ([1]; first experiment (1:200), HYVAR + 6.28 mg/ml GC219, Day 1) was “+” and the “PHYTOTOXICITY RATING” value ([1]; first experiment (1:200), HYVAR + 6.28 mg/ml GC219, Day 2) was “++”. For the same compound, the “PHYTOTOXICITY RATING” value ([1]; second experiment (1:400), HYVAR + 6.28 mg/ml GC219, Day 2) was “+”, the “PHYTOTOXICITY RATING” value ([1]; second experiment (1:400), HYVAR + 6.28 mg/ml GC219, Day 3) was “++” and the “PHYTOTOXICITY RATING” value ([1]; second experiment (1:400), HYVAR + 12.6 mg/ml GC219, Day 2) was “++”. The “PHYTOTOXICITY RATING” value ([1]; second experiment (1:400), HYVAR + 12.6 mg/ml GC219, Day 3) was “++”, the “CHL (chlorosis)” value (Giant Fox Tail [2]; High Enzyme) was 75% and the “NEC (necrosis)” value (Giant Fox Tail [2]; Low Enzyme) was 73%. For the same compound, the “VIG (vigor)” value (Giant Fox Tail [2]; Low Enzyme) was 73%, the “CHL (chlorosis)” value (Giant Fox Tail [3]; [4]) was 18% and the “NEC (necrosis)” value (Giant Fox Tail [3]; [4]) was 18%. The “PHY (phytotoxicity)” value (Giant Fox Tail [3]; [4]) was 22%, the “VIG (vigor)” value (Giant Fox Tail [3]; [4]) was 30% and the “CHL (chlorosis)” value (Giant Fox Tail [3]; [5]) was 50%. The “NEC (necrosis)” value (Giant Fox Tail [3]; [5]) was 30%, the “PHY (phytotoxicity)” value (Giant Fox Tail [3]; [5]) was 43% and the “VIG (vigor)” value (Giant Fox Tail [3]; [5]) was 50%. For the same compound, the “CHL (chlorosis)” value (Giant Fox Tail [3]; [6]) was 40%, the “NEC (necrosis)” value (Giant Fox Tail [3]; [6]) was 30% and the “PHY (phytotoxicity)” value (Giant Fox Tail [3]; [6]) was 40%. For the same compound, the “VIG (vigor)” value (Giant Fox Tail [3]; [6]) was 50%, the “NEC (necrosis)” value (Giant Fox Tail [3]; [7]) was 75% and the “PHY (phytotoxicity)” value (Giant Fox Tail [3]; [7]) was 75%. The “VIG (vigor)” value (Giant Fox Tail [3]; [7]) was 75%, the “CHL (chlorosis)” value (Giant Fox Tail [3]; [8]) was 73% and the “PHY (phytotoxicity)” value (Giant Fox Tail [3]; [8]) was 73%. The “CHL (chlorosis)” value (Giant Fox Tail [3]; [9]) was 65%, the “NEC (necrosis)” value (Giant Fox Tail [3]; [9]) was 63% and the “PHY (phytotoxicity)” value (Giant Fox Tail [3]; [9]) was 64%. For the same compound, the “VIG (vigor)” value (Giant Fox Tail [3]; [9]) was 63%, the “CHL (chlorosis)” value (Giant Fox Tail [3]; [10]) was 38% and the “NEC (necrosis)” value (Giant Fox Tail [3]; [10]) was 50%. The “PHY (phytotoxicity)” value (Giant Fox Tail [3]; [10]) was 30%, the “VIG (vigor)” value (Giant Fox Tail [3]; [10]) was 63% and the “CHL (chlorosis)” value (Giant Fox Tail [3]; [11]) was 43%. The “NEC (necrosis)” value (Giant Fox Tail [3]; [11]) was 65%, the “PHY (phytotoxicity)” value (Giant Fox Tail [3]; [11]) was 57% and the “VIG (vigor)” value (Giant Fox Tail [3]; [11]) was 63%. The “CHL (chlorosis)” value (Giant Fox Tail [3]; [12]) was 50%, the “NEC (necrosis)” value (Giant Fox Tail [3]; [12]) was 38% and the “PHY (phytotoxicity)” value (Giant Fox Tail [3]; [12]) was 48%. The “VIG (vigor)” value (Giant Fox Tail [3]; [12]) was 55%, the “CHL (chlorosis)” value (Giant Fox Tail [3]; [13]) was 60% and the “NEC (necrosis)” value (Giant Fox Tail [3]; [13]) was 60%. For the same compound, the “PHY (phytotoxicity)” value (Giant Fox Tail [3]; [13]) was 65%, the “VIG (vigor)” value (Giant Fox Tail [3]; [13]) was 75% and the “CK (chlorosis)” value (Turnip; HYVAR 10% dose, High Enzyme) was 50%. For the same compound, the “NEC (necrosis)” value (Turnip; HYVAR 10% dose, High Enzyme) was 85%, the “PHY (phytotoxicity)” value (Turnip; HYVAR 10% dose, High Enzyme) was 73% and the “VIG (vigor)” value (Turnip; HYVAR 10% dose, High Enzyme) was 83%. The “CK (chlorosis)” value (Turnip; HYVAR 10% dose, Low Enzyme) was 70%, the “NEC (necrosis)” value (Turnip; HYVAR 10% dose, Low Enzyme) was 90% and the “PHY (phytotoxicity)” value (Turnip; HYVAR 10% dose, Low Enzyme) was 84%. The “VIG (vigor)” value (Turnip; HYVAR 10% dose, Low Enzyme) was 93%, the “CK (chlorosis)” value (Turnip; HYVAR 10% dose, No Enzyme) was 70% and the “NEC (necrosis)” value (Turnip; HYVAR 10% dose, No Enzyme) was 93%. The “PHY (phytotoxicity)” value (Turnip; HYVAR 10% dose, No Enzyme) was 84%, the “VIG (vigor)” value (Turnip; HYVAR 10% dose, No Enzyme) was 90% and the “CK (chlorosis)” value (Turnip; HYVAR 40% dose, High Enzyme) was 97%. For the same compound, the “NEC (necrosis)” value (Turnip; HYVAR 40% dose, High Enzyme) was 97%, the “PHY (phytotoxicity)” value (Turnip; HYVAR 40% dose, High Enzyme) was 97% and the “VIG (vigor)” value (Turnip; HYVAR 40% dose, High Enzyme) was 98%. For the same compound, the “CK (chlorosis)” value (Turnip; HYVAR 40% dose, Low Enzyme) was 93%, the “NEC (necrosis)” value (Turnip; HYVAR 40% dose, Low Enzyme) was 95% and the “PHY (phytotoxicity)” value (Turnip; HYVAR 40% dose, Low Enzyme) was 94%. For the same compound, the “VIG (vigor)” value (Turnip; HYVAR 40% dose, Low Enzyme) was 95%, the “CK (chlorosis)” value (Turnip; HYVAR 40% dose, No Enzyme) was 65% and the “NEC (necrosis)” value (Turnip; HYVAR 40% dose, No Enzyme) was 73%. The “PHY (phytotoxicity)” value (Turnip; HYVAR 40% dose, No Enzyme) was 74%, the “VIG (vigor)” value (Turnip; HYVAR 40% dose, No Enzyme) was 85% and the “CK (chlorosis)” value (Turnip; HYVAR 100% dose, No Enzyme) was 100%. The “NEC (necrosis)” value (Turnip; HYVAR 100% dose, No Enzyme) was 95%, the “PHY (phytotoxicity)” value (Turnip; HYVAR 100% dose, No Enzyme) was 95% and the “VIG (vigor)” value (Turnip; HYVAR 100% dose, No Enzyme) was 90%. For the same compound, the “CHL (chlorosis)” value (Soybeans; HYVAR 10% dose, High Enzyme) was 25%, the “NEC (necrosis)” value (Soybeans; HYVAR 10% dose, High Enzyme) was 50% and the “PHY (phytotoxicity)” value (Soybeans; HYVAR 10% dose, High Enzyme) was 42%. The “VIG (vigor)” value (Soybeans; HYVAR 10% dose, High Enzyme) was 50%, the “CHL (chlorosis)” value (Soybeans; HYVAR 10% dose, Low Enzyme) was 90% and the “NEC (necrosis)” value (Soybeans; HYVAR 10% dose, Low Enzyme) was 83%. For the same compound, the “PHY (phytotoxicity)” value (Soybeans; HYVAR 10% dose, Low Enzyme) was 88%, the “VIG (vigor)” value (Soybeans; HYVAR 10% dose, Low Enzyme) was 90% and the “CHL (chlorosis)” value (Soybeans; HYVAR 10% dose, No Enzyme) was 55%. For the same compound, the “NEC (necrosis)” value (Soybeans; HYVAR 10% dose, No Enzyme) was 75%, the “PHY (phytotoxicity)” value (Soybeans; HYVAR 10% dose, No Enzyme) was 68% and the “VIG (vigor)” value (Soybeans; HYVAR 10% dose, No Enzyme) was 75%. The “CHL (chlorosis)” value (Soybeans; HYVAR 40% dose, High Enzyme) was 45%, the “NEC (necrosis)” value (Soybeans; HYVAR 40% dose, High Enzyme) was 50% and the “PHY (phytotoxicity)” value (Soybeans; HYVAR 40% dose, High Enzyme) was 59%. The “VIG (vigor)” value (Soybeans; HYVAR 40% dose, High Enzyme) was 83%, the “CHL (chlorosis)” value (Soybeans; HYVAR 40% dose, Low Enzyme) was 55% and the “NEC (necrosis)” value (Soybeans; HYVAR 40% dose, Low Enzyme) was 88%. For the same compound, the “PHY (phytotoxicity)” value (Soybeans; HYVAR 40% dose, Low Enzyme) was 72%, the “VIG (vigor)” value (Soybeans; HYVAR 40% dose, Low Enzyme) was 73% and the “CHL (chlorosis)” value (Soybeans; HYVAR 40% dose, No Enzyme) was 45%. For the same compound, the “NEC (necrosis)” value (Soybeans; HYVAR 40% dose, No Enzyme) was 60%, the “PHY (phytotoxicity)” value (Soybeans; HYVAR 40% dose, No Enzyme) was 39% and the “VIG (vigor)” value (Soybeans; HYVAR 40% dose, No Enzyme) was 73%. The “CHL (chlorosis)” value (Soybeans; HYVAR 100% dose, No Enzyme) was 100%, the “NEC (necrosis)” value (Soybeans; HYVAR 100% dose, No Enzyme) was 100% and the “PHY (phytotoxicity)” value (Soybeans; HYVAR 100% dose, No Enzyme) was 100%. The “VIG (vigor)” value (Soybeans; HYVAR 100% dose, No Enzyme) was 100%.
